pIC50: −log10 of the molar value. Like-named read-outs stand apart in the source and are kept apart here.
Assays:
[1] = molecular target: GDP-bound KRAS protein (aa 1-169), containing both G12C and C118A amino acid substitutions (Homo sapiens, UniProt P01116, C118A/G12C); experiment: Coupled Nucleotide Exchange Assay (SOS-mediated nucleotide exchange, AlphaScreen); format: biochemical; conditions: compound pre-incubation either 5 min or 2 hours (not stated per compound); SOS and GTP added, cRAF AlphaScreen read-out
GDP-bound KRAS protein (aa 1-169), containing both G12C and C118A amino acid substitutions, sequence (P01116 1-169 isoform P01116-2 G12C/C118A): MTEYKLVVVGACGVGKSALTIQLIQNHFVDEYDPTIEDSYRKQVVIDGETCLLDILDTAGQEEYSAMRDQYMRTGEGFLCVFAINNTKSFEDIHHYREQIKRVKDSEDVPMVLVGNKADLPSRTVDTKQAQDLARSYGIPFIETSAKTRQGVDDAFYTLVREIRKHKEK
Protocol: (§1) For compounds in Table 6, the following assay conditions were employed:
Coupled Nucleotide Exchange Assay: Purified GDP-bound KRAS protein (aa 1-169), containing both G12C and C118A amino acid substitutions and an N-terminal His-tag, was pre-incubated in assay buffer (25 mM HEPES pH 7.4, 10 mM MgCl2, and 0.01% Triton X-100) with a compound dose-response titration for either 5 min or 2 hours (see Table 15). Following compound pre-incubation, purified SOS protein (aa 564-1049) and GTP (Roche 10106399001) were added to the assay wells and incubated for an additional 30 min (for 5 min compound pre-incubation) or 1 hour (for 2 hour compound pre-incubation). To determine the extent of inhibition of SOS-mediated nucleotide exchange, purified GST-tagged cRAF (aa 1-149), nickel chelate AlphaLISA acceptor beads (PerkinElmer AL108R), and AlphaScreen glutathione donor beads (PerkinElmer 6765302) were added to the assay wells and incubated for 10 minutes. The assay plates were then read on a PerkinElmer EnVision Multilabel Reader, using AlphaScreen® technology, and data were analyzed using a 4-parameter logistic model to calculate IC50 values.

[2] = test system: Phosphorylation of ERK1/2 in MIA PaCa-2 cells; experiment: Phospho-ERK1/2 MSD Assay; format: cell-based; conditions: compound 2 or 4 hours, then 10 ng/mL EGF for 10 min, read-out: p-ERK IC50 (MIA-PaCa-2) (converted)
Protocol: as §1
Phospho-ERK1/2 MSD Assay: MIA PaCa-2 (ATCC® CRL-1420™) cells were cultured in RPMI 1640 Medium (ThermoFisher Scientific 11875093) containing 10% fetal bovine serum (ThermoFisher Scientific 16000044) and 1× penicillin-streptomycin-glutamine (ThermoFisher Scientific 10378016). Sixteen hours prior to compound treatment, MIA PaCa-2 cells were seeded in 96-well cell culture plates at a density of 25,000 cells/well and incubated at 37° C., 5% CO2. A compound dose-response titration was diluted in growth media, added to appropriate wells of a cell culture plate, and then incubated at 37° C., 5% CO2 for 2 or 4 hours. Following compound treatment, cells were stimulated with 10 ng/mL EGF (Roche 11376454001) for 10 min, washed with ice-cold Dulbecco's phosphate-buffered saline, no Ca^2+ or Mg^2+ (ThermoFisher Scientific 14190144), and then lysed in RIPA buffer (50 mM Tris-HCl pH 7.5, 1% Igepal, 0.5% sodium deoxycholate, 150 mM NaCl, and 0.5% sodium dodecyl sulfate) containing protease inhibitors (Roche 4693132001) and phosphatase inhibitors (Roche 4906837001). Phosphorylation of ERK1/2 in compound-treated lysates was assayed using Phospho-ERK1/2 Whole Cell Lysate kits (Meso Scale Discovery K151DWD) according to the manufacturer's protocol. Assay plates were read on a Meso Scale Discovery Sector imager 6000, and data were analyzed using a 4-parameter logistic model to calculate IC50 values.

[3] = Homo sapiens, MIA PaCa-2, MIA PaCa-2 cells

An IC50 [1] of 0.15 µM and an IC50 [2, 3] of 0.09 µM were found for `C=CC(=O)N1CCN(C2=NS(=O)(=O)N(c3ccc(CN(C)C)cc3C(C)C)c3nc(-c4ccccc4F)c(Cl)cc32)[C@@H](C)C1` [Example 3-1, 1-((3S)-4-(6-Chloro-1-(4-((dimethylamino)methyl)-2-(2-propanyl)phenyl)-7-(2-fluorophenyl)-2,2-dioxido-1H-pyrido[2,3-c][1,2,6]thiadiazin-4-yl)-3-methyl-1-piperazinyl)-2-propen-1-one] in this work.
An IC50 [1] of 0.15 µM and an IC50 [2, 3] of 0.15 µM were found for `C=CC(=O)N1C[C@H](C)N(C2=NS(=O)(=O)N(c3ccc(CN(C)C)cc3C3CC3)c3nc(-c4ccccc4F)c(Cl)cc32)C[C@H]1C` [Example 6, 1-((2R,5S)-4-(6-Chloro-1-(2-cyclopropyl-4-((dimethylamino)methyl)phenyl)-7-(2-fluorophenyl)-2,2-dioxido-1H-pyrido[2,3-c][1,2,6]thiadiazin-4-yl)-2,5-dimethyl-1-piperazinyl)-2-propen-1-one] in this work.
An IC50 [1] of 0.19 µM and an IC50 ([2]; MIA PaCa-2 cells) of 0.27 µM were found for `C=CC(=O)N1C[C@H](C)N(C2=NS(=O)(=O)N(c3c(C)cc(CN(C)C)cc3C(C)C)c3nc(-c4c(N)cccc4F)c(Cl)cc32)C[C@H]1C` [Example 8, 1-((2R,5S)-4-(7-(2Amino-6-fluorophenyl)-6-chloro-1-(4-((dimethylamino)methyl)-2-methyl-6-(2-propanyl)phenyl)-2,2-dioxido-1H-pyrido[2,3-c][1,2,6]thiadiazin-4-yl)-2,5-dimethyl-1-piperazinyl)-2-propen-1-one] in this work.
An IC50 [1] of 0.08 µM and an IC50 ([2]; MIA PaCa-2 cells) of 0.08 µM were found for `C=CC(=O)N1C[C@H](C)N(C2=NS(=O)(=O)N(c3c(C)cc(CN(C)C)cc3C(C)C)c3nc(-c4c(N)cccc4F)c(Cl)cc32)C[C@H]1C` [Example 8-1, 1-((2R,5S)-4-(7-(2-amino-6-fluorophenyl)-6-chloro-1-(4-((dimethylamino)methyl)-2-methyl-6-(2-propanyl)phenyl)-2,2-dioxido-1H-pyrido[2,3-c][1,2,6]thiadiazin-4-yl)-2,5-dimethyl-1-piperazinyl)-2-propen-1-one] in this work.
A pIC50 [1] of 6.60 and an IC50 ([2]; MIA PaCa-2 cells) of 0.15 µM were found for `C=CC(=O)N1C[C@H](C)N(C2=NS(=O)(=O)N(c3c(N)ncnc3C(C)C)c3nc(-c4ccccc4F)c(Cl)cc32)C[C@H]1C` [Example 9] in this work.

— patent publication US10988485B2 (Amgen Inc., priority 2018, dated 2021)
